The test system of one series is Mam 16/C. The series is described as follows: In vivo activity, SC Mam 16/C tumor. Also on record: species or system mice.
For series [1], the system named is Colon 38 (colon adenocarcinoma #38).
Method: (§1) Gross log kill is defined as T-C/3.2 Td where T is the median time in days for the tumors of the treated group to reach 750 mg, C is the median time in days for the tumors of the control group to reach 750 mg, and Td is the tumor volume doubling time.
Series [2] concerns Mam 16/Taxol (taxol-resistant mammary #16/C/RP). The series is described as follows: In vivo activity, SC Mam 16/Taxol tumor. The arrangement: species or system mice. The conditions noted are these: Exp 1733, 5 inj. IV, total dose 16.5 mg/kg.
Method: as §1
The test system of another series is Human Sm Cell L. DMS273. The series is described as follows: In vivo activity, SC DMS273 tumor. The conditions noted are these: Exp 1596; SC Human Sm Cell L. DMS273 SCID; 6 inj. IV; total dose 7.3 mg/kg.
Series [3] concerns murine and human tumors implanted in mice. The conditions noted are these: G. Trimurtulu et al. 1994; R. Barrow et al. 1995; cited from earlier work.
In a further series the test system is MX-1 Human Breast. The series is described as follows: In vivo activity, SC MX-1 tumor. The arrangement: species or system SCID mice. The conditions noted are these: Exp 1806; SC MX-1 Human Breast; 8 inj. IV; total dose 12 mg/kg.
Another series relates to M17/0 (Adr. Sens.). The series is described as follows: In vivo activity, SC M17/0 tumor. The arrangement: species or system mice. The settings on record: Exp 1833; SC M17/0 (Adr. Sens.); 5 inj. IV; total dose 5.4 mg/kg.
In series [4] the test system is Colon 51 (colon adenocarcinoma #51). The series is described as follows: In vivo activity, SC Colon 51 tumor. Also on record: species or system mice.
Method: as §1
The next series relates to microtubule assembly. The conditions noted are these: C. D. Smith et al. 1994; compared with vinblastine; cited from earlier work.
Series [5] relates to murine leukemia (L1210 or P388), murine solid tumor, human solid tumor and low malignancy fibroblast (LML).
The next series has as its system LNCaP Human Prostate. The series is described as follows: In vivo activity, SC LNCaP tumor. The arrangement: species or system mice. The settings on record: Exp 1841, 6 inj. IV, total dose 6.5 mg/kg.
A further series relates to H125 Human Adenosq-lung. The series is classed as in vivo, SCID mice. The conditions noted are these: Exp 1823; SC H125 Human Adenosq-lung; 8 inj. IV; total dose 14.4 mg/kg.
The next series can be described thus: Toxicity in mice. The series is classed as in vivo. The settings on record: for cause of lethal toxicity observed during testing: in vivo testing.
Series [6] has as its system fungi, especially strains of Cryptococcus. The conditions noted are these: R. E. Schwartz et al. 1990; cited from earlier work.
In series [7] the test system is murine and human tumors implanted in mice. The series is classed as in vivo. The settings on record: for tumor burden T/C values: summary: Cryptophycin 1 in five early stage murine and two early stage human tumors, Cryptophycin 8 in all tumors tested to date; for in vivo antitumor activity: tumors implanted in mice.
Method: as §1
Series [8] concerns human tumor cell lines such as KB and LoVo. The series is described as follows: Cytotoxicity against human tumor cell lines such as KB and LoVo. The series is classed as cell-based.
Series [9] relates to Panc 03 (pancreatic ductal adenocarcinoma #03). The settings on record: for Log Kill: 9 inj. IV.
Method: as §1
Series [10] in a line: Solvolysis (methanolysis) of the C-D ester bond. The series is classed as physicochemical. The settings on record: methanol used in isolation scheme.
A further series relates to colon adenocarcinoma #33. The series is described as follows: In vivo activity, early stage colon adenocarcinoma #33. The settings on record: 8.1 mg/kg. Also on record: species or system mice.
In series [11] the test system is tumor (leukemia) and normal cell (CFUGM) lines. The series is classed as cell-based. The settings on record: μg/disk per compound where printed.
Setting [12] is: μg/disk differs per compound (0.2-250 μg/disk).
Setting [13] is: Exp 1769, SC C38, 15 inj. IV, 45 mg/kg TD.
[14] abbreviates: pancreatic ductal adenocarcinoma #03, 8.1 mg/kg.

Several values for one entry are separate records, joined by “and”; a condition that tells them apart may be missing. Equal values may be shown once. Entries after “also recorded” stand apart in the source; their conditions may differ. Read-outs that look alike come from different tables or passages of the source.

Data on twelve compounds can be found in patent US6013626A (priority 1995, dated 2000).

Method for H125 Human Adenosq-lung: as §1
Method for Human Sm Cell L. DMS273: as §1
Method for LNCaP Human Prostate: as §1
Method for M17/0 (Adr. Sens.): as §1
Method for MX-1 Human Breast: as §1
Method for Mam 16/C: as §1
Method for colon adenocarcinoma #33: Gross log kill is defined as T-C/3.2 Td where T is the median time in days for the tumors of the treated group to reach 750 mg, C is the median time in days for the tumors of the control group to reach 750 mg, and Td is the tumor volume doubling time (T. H. Corbett et al., Cytotoxic Anticancer Drugs: Models and Concepts for Drug Discovery and Development, pp 35-87; Kluwer: Norwell, 1992).

As for `COc1ccc(C[C@H]2NC(=O)/C=C/C[C@@H]([C@H](C)[C@H]3O[C@@H]3c3ccccc3)OC(=O)[C@H](CC(C)C)OC(=O)[C@H](C)CNC2=O)cc1Cl` [Cryptophycin 1], the Cures was 0/5 in the series on Mam 16/C (Exp 1720, 5 inj. IV, total dose 13.2 mg/kg); 0/4 in series [2]; 0/5 in the series with Human Sm Cell L. DMS273; 0/5 with MX-1 Human Breast; 0/5 with M17/0 (Adr. Sens.); 0/5 in [4] (Exp 1636, 7 inj. IV, total dose 28.1 mg/kg). The Cures in the series on LNCaP Human Prostate and in the series with H125 Human Adenosq-lung was 0/5 each time. Further, the “% Body Wt. Loss at Nadir” value in series [1] (Exp 1560, SC Colon 38, 8 inj. IV, total dose 10.3 mg/kg) is listed as “Gain”; in the series on Human Sm Cell L. DMS273, 0%. Further, the “Log Kill” value is less than 1 with Human Sm Cell L. DMS273, 2.0 in the series with MX-1 Human Breast, less than 1 in the series with LNCaP Human Prostate and 1.1 in the series with H125 Human Adenosq-lung. Besides, in series [3], the “activity against subcutaneously transplanted solid tumors in mice” value is reported as “very active against subcutaneously transplanted solid tumors in mice”. The “inhibition of microtubule assembly” value with microtubule assembly is “irreversibly inhibiting mircotubule assembly”. For the same compound, the “Corbett Assay, Differential in Zone Units” value (shortened to “Corbett Assay, Differential”) in series [5] is given as more than 400. Besides, in [5] (setting [12]), the “Corbett Assay, Type of Cytotoxicity” value is listed as “E/T”. The “cause of lethal toxicity observed during testing” value in the series “Toxicity in mice” was “attributed to leucopenia”. Moreover, the antifungal activity result in series [6] was “very active against fungi, especially strains of Cryptococcus”. For the same compound, the “log kill values, range over trials” value in series [7] (summary b714) was less than 1 to 2. In addition, the “tumor burden T/C values” in [7] is recorded as “less than 10%”. Also, the “in vivo antitumor activity” value in series [7] is “shows antitumor activity; also recorded: very promising activity”.

Turning to `COc1ccc(C[C@H]2NC(=O)/C=C/C[C@@H]([C@H](C)[C@H]3O[C@@H]3c3ccccc3)OC(=O)[C@H](CC(C)C)OC(=O)[C@H](C)CNC2=O)cc1` [Cryptophycin 2], in [5] (setting [12]), the “Corbett Assay, Differential” value is more than 400 zone units and the “Corbett Assay, Type of Cytotoxicity” value was “E/T”.

Take `COc1ccc(C[C@H]2NC(=O)/C=C/C[C@@H]([C@H](C)/C=C/c3ccccc3)OC(=O)[C@H](CC(C)C)OC(=O)[C@H](C)CNC2=O)cc1Cl` [Cryptophycin 3]: in series [5], the “Corbett Assay, Differential” value is more than 400. The “Corbett Assay, Type of Cytotoxicity” value in series [5] (setting [12]) was “E/T”. Besides, the “IC50's” value in series [8] lay in the range of 2 to 4 ng/mL.

Consider `COc1ccc(C[C@H]2NC(=O)/C=C/C[C@@H]([C@H](C)/C=C/c3ccccc3)OC(=O)[C@H](CC(C)C)OC(=O)[C@H](C)CNC2=O)cc1` [Cryptophycin 4], for which, in [5] (setting [12]), the “Corbett Assay, Differential” value is more than 400 zone units and the “Corbett Assay, Type of Cytotoxicity” value is recorded as “E/T”.

The term T/C denotes the result in the treated group divided by that in the control group, in per cent. With `COc1ccc(C[C@H]2NC(=O)/C=C/C[C@@H]([C@H](C)[C@@H](O)[C@@H](Cl)c3ccccc3)OC(=O)[C@H](CC(C)C)OC(=O)[C@H](C)CNC2=O)cc1Cl` [Cryptophycin 8], the Cures in series [9] (Exp 1825, SC P03, 11 inj. IV, 106 mg/kg TD) was 0/5; with Mam 16/C (Exp 1885, 7 inj. IV, 21.3 mg/kg TD) it was 0/5; in series [4] (Exp 1900, 9 inj. IV, 67.5 mg/kg TD), 0/5; in series [7] (summary b279), “some cures”. Further, in series [1] (setting [13]), the “Log Kill” value is recorded as “None”. In addition, the T/C in series [1] (setting [13]) is reported as more than 100%. Further, in series [1] (Exp 1887B, SC C38, 6 inj. IV, 30 mg/kg TD), the “% Body Wt. Loss at Nadir” value is -2%. Also, the “Corbett Assay, Differential” value in [5] is given as more than 500. Also, the “Corbett Assay, Type of Cytotoxicity” value in series [5] (setting [12]) is given as “E/T”. Besides, the “cause of lethal toxicity observed during testing” value in “Toxicity in mice” is “attributed to leucopenia”. The “gross log kill activity ratings” value in series [7] (summary b279) was “+++ to ++++”. Also, the “tumor burden T/C values” in series [7] is on record as less than 10%.

With `CC(C)C[C@@H]1OC(=O)[C@H](C)CNC(=O)[C@@H](Cc2ccc(O)c(Cl)c2)NC(=O)/C=C/C[C@@H]([C@H](C)[C@H]2O[C@@H]2c2ccccc2)OC1=O` [Cryptophycin 16], the “Log Kill” value in [9] (Exp 1878, SC P03, 82 mg/kg TD) is on record as “None”.

`COc1ccc(C[C@H]2NC(=O)/C=C/C[C@@H]([C@H](C)[C@H]3O[C@@H]3c3ccccc3)OC(=O)[C@H](CC(C)C)OC(=O)CCNC2=O)cc1Cl` [Cryptophycin 21]: the “Log Kill” value in series [9] (Exp 1813, SC P03, 27 mg/kg TD) is recorded as “None”. In addition, in series [10], the susceptibility to methanolysis entry is recorded as “much more susceptible to methanolysis than Cryptophycin 1”. Also, the “in vivo antitumor activity” value in [7] was “inactive”.

For the compound `COc1ccc(CC2NC(=O)CCCC(C(C)C3OC3c3ccccc3)OC(=O)C(CC(C)C)OC(=O)C(C)CNC2=O)cc1Cl` (centres unmarked) [Cryptophycin 35], the “in vivo antitumor activity” value in series [7] was “Good in vivo activity”.

With `COc1ccc(C[C@H]2NC(=O)/C=C/C[C@@H]([C@H](C)/C=C/c3ccccc3)OC(=O)[C@H](CC(C)C)OC(=O)C(C)(C)CNC2=O)cc1Cl` [Cryptophycin 51], the “IC50's” value in series [8] was 2 to 4 ng/mL.

On to `COc1ccc(C[C@H]2NC(=O)/C=C/C[C@@H]([C@H](C)[C@H]3O[C@@H]3c3ccccc3)OC(=O)[C@H](CC(C)C)OC(=O)C(C)(C)CNC2=O)cc1Cl` [Cryptophycin 52], for which the “gross (tumor cell) log kill” value (in series [9] (setting [14]); in the series with colon adenocarcinoma #33) was less than 2 in each case. Also, the “tumor burden T/C” value in series [9] (setting [14]) was found to be 16%; in the series on colon adenocarcinoma #33 it was 4%. Further, the “acute and chronic toxicities” value in “Toxicity in mice” (in mice) was “greater than Cryptophycin 1”. The “in vivo antitumor activity” value in [7] is given as “antitumor activity is seen at sublethal levels; also recorded: comparable in vivo activity to Cryptophycin 1”. The “IC50's” value in [8] was in the range of 0.025 to 0.05 ng/mL.

As for `CC(=O)O[C@H]1C(=O)[C@@]2(C)[C@H]([C@H](OC(=O)c3ccccc3)[C@]3(O)C[C@H](OC(=O)[C@H](O)[C@@H](NC(=O)c4ccccc4)c4ccccc4)C(C)=C1C3(C)C)[C@]1(OC(C)=O)CO[C@@H]1C[C@@H]2O` [Taxol, taxol, reference compound], in series [5] (setting [12]), the “Corbett Assay, Differential” value is not below 400 zone units and the “Corbett Assay, Type of Cytotoxicity” value was “M/H/T”.

In the case of `COc1cc([C@@H]2c3cc4c(cc3[C@@H](O[C@@H]3O[C@@H]5CO[C@@H](C)O[C@H]5[C@H](O)[C@H]3O)[C@H]3COC(=O)[C@H]23)OCO4)cc(OC)c1O` [VP-16, etoposide, reference compound], in series [11], the “Valeriote Assay, Differential in Zone Units” value was 260 zone units. Besides, in series [5] (setting [12]), the “Corbett Assay, Differential” value was 350 zone units and 530 zone units.
